The text below walks through data of patent US20220071880A1, “METHODS FOR TREATING CUTANEOUS AGING” (Applied Therapeutics, Inc., priority 2019, published 2022).

Assay type in all cases: cell-based
The subject of assay [1] is Cultured human skin cells (keratinocytes). Description: Cytosolic reactive oxygen species by dihydroethidium (DHE) staining in H2O2-exposed cultured keratinocytes. The text has this: FIGS. 1A and 1B are fluorescence images of cultured human skin (keratinocytes) that were exposed to H2O2 to cause oxidative stress. The cells were analyzied for cytosolic reactive oxygen species by staining with dihydroethidium (DHE). FIG. 1A depicts the skin cell damage in the presence of H2O2 as assessed by DHE staining, and the presence of cytosolic reactive oxygen species is shown by fluorescence.
(§1) Cultured human skin cells (keratinocytes) were exposed to H2O2, which causes oxidative damage to simulate the aging process, in the presence of Compound A (at 0.18 nM concentration) or vehicle control. The cultured cells were then assessed for cytosolic reactive oxygen species via Dihydroethidium (DHE) staining (FIG. 1A and FIG. 1B) and for mitochondrial stress via Mitosox™ (a fluorgenic dye targeted to mitochondria in live cells and readily oxidized by superoxide to produce fluorescence, ThermoFisher Scientific) staining (FIG. 2A and FIG. 2B).

Assay [2] has the same test system. Description: Mitochondrial oxidative stress by Mitosox staining in H2O2-exposed cultured keratinocytes. The procedure: FIGS. 2A and 2B are fluorescence images of cultured human skin (keratinocytes) that were exposed to H2O2 to cause oxidative stress. The cells were analyzied for mitochondrial stress by staining with Mitosox. FIG. 2A depicts the skin cell damage in the presence of H2O2 as assessed by Mitosox staining.
as §1

Assay [3] deals with cultured human keritinocytes. Description: Senescence-associated beta-galactosidase (SA-βgal) expression in H2O2-exposed cultured keratinocytes, cytochemical approach. Conditions: human keratinocytes exposed to H2O2; Compound A at 0.18 nM vs vehicle control. The protocol: Senescence-associated beta-galactosidase (SA-βgal) is a well-known biomarker of senescent cells in culture and in vivo. Debacq-Chainiaux et al., Nature Protocols 4, 1798-1806 (2009). In additional studies the cultured human keritinocytes that were exposed to H2O2 in the presence of Compound A (at 0.18 nM concentration) or vehicle control were analyzed for expression of SA-βgal using a cytochemical approach.

The mark [4] stands for this setting: same cultured human keratinocyte system, concentration not given.
The mark [5] stands for this setting: human keratinocytes exposed to H2O2, Compound A at 0.18 nM vs vehicle control.

“Also recorded” adds a separate entry of the source.

For `O=C(O)Cc1nn(Cc2nc3cc(C(F)(F)F)ccc3s2)c(=O)c2cscc12` [Compound B], the “H2O2-induced cytosolic reactive oxygen species formation” value in assay [1] (setting [4]) is recorded as “inhibited H2O2-induced cytosolic reactive oxygen species formation”. The “H2O2-induced mitochondrial oxidative stress” value in assay [2] (setting [4]) was “inhibited H2O2-induced cytosolic reactive oxygen species formation and mitochondrial oxidative stress”.

For `O=C(O)Cc1nn(Cc2nc3cc(C(F)(F)F)ccc3s2)c(=O)c2nccnc12` [Compound A], the “H2O2-induced cytosolic reactive oxygen species formation (DHE fluorescence)” value in assay [1] (setting [5]) is recorded as “attenuated DHE fluorescence; also recorded: attenuated H2O2-induced cytosolic reactive oxygen species formation”. Besides, the “H2O2-induced mitochondrial oxidative stress (Mitosox fluorescence)” value in assay [2] (setting [5]) is listed as “reduced Mitisox fluorescence; also recorded: reduced mitochondrial oxidative stress”. The “H2O2-induced SA-βgal expression” value in assay [3] is recorded as “inhibited H2O2-induced SA-βgal”.
